# Measured values from the supplement of paper PMC10307832.
# Assays:
# Assay in all cases: relative viability (nuclei count vs DMSO), 5 days (fraction); higher = more cells survive
# [1] = compound: CC1CC(=O)N(C2=CN=C(N=C2N1C3CCCC3)NC4=C(C=C(C=C4)C(=O)NC5CCN(CC5)C)OC)C [NPK76-II-72-1] + COc1cc2c(Oc3ccc(NC(=O)C4(C(=O)Nc5ccc(F)cc5)CC4)cc3F)ccnc2cc1OCCCN1CCOCC1 [Foretinib] (partner 0.25 µM)
# Summary of the method: (§1)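 Relative viability divides the nuclei count in treated wells by that in vehicle wells. Lung cancer cell lines were seeded in 1536-well plates, dosed by pin tool the next day, and fixed and stained after 5 days in one step with final 0.05% Triton X-100, 1% formaldehyde and 1 ug/ml Hoechst. Dosing was a single drug or a fixed anchor-drug dose plus five library-drug doses (not always all listed) in √10 steps, and values are medians of duplicate plates imaged at 4×.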
# [2] = compound: CC1CC(=O)N(C2=CN=C(N=C2N1C3CCCC3)NC4=C(C=C(C=C4)C(=O)NC5CCN(CC5)C)OC)C [NPK76-II-72-1] + CS(=O)(=O)N1CCN(Cc2cc3nc(-c4cccc5[nH]ncc45)nc(N4CCOCC4)c3s2)CC1 [Pictilisib] (partner 1 µM)
# Summary of the method: as §1
# BI-2536 + Tozasertib = compound: CC[C@@H]1C(=O)N(C)c2cnc(Nc3ccc(C(=O)NC4CCN(C)CC4)cc3OC)nc2N1C1CCCC1 [BI-2536] + Cc1cc(Nc2cc(N3CCN(C)CC3)nc(Sc3ccc(NC(=O)C4CC4)cc3)n2)n[nH]1 [Tozasertib] (partner 0.1 µM)
# Summary of the method: as §1
# BI-2536 + Olaparib = compound: CC[C@@H]1C(=O)N(C)c2cnc(Nc3ccc(C(=O)NC4CCN(C)CC4)cc3OC)nc2N1C1CCCC1 [BI-2536] + O=C(c1cc(Cc2n[nH]c(=O)c3ccccc23)ccc1F)N1CCN(C(=O)C2CC2)CC1 [Olaparib] (partner 8 µM)
# Summary of the method: as §1
Cell Line,relative viability ([1]; first compound 0.01 µM),relative viability ([1]; first compound 0.03162 µM),relative viability ([1]; first compound 0.1 µM),relative viability ([1]; first compound 0.3162 µM),relative viability ([1]; first compound 1 µM),relative viability ([2]; first compound 0.01 µM),relative viability ([2]; first compound 0.03162 µM),relative viability ([2]; first compound 0.1 µM),relative viability ([2]; first compound 0.3162 µM),relative viability ([2]; first compound 1 µM),relative viability (BI-2536 + Tozasertib; first compound 0.01 µM),relative viability (BI-2536 + Tozasertib; first compound 0.03162 µM),relative viability (BI-2536 + Tozasertib; first compound 0.1 µM),relative viability (BI-2536 + Tozasertib; first compound 0.3162 µM),relative viability (BI-2536 + Tozasertib; first compound 1 µM),relative viability (BI-2536 + Olaparib; first compound 0.01 µM),relative viability (BI-2536 + Olaparib; first compound 0.03162 µM),relative viability (BI-2536 + Olaparib; first compound 0.1 µM),relative viability (BI-2536 + Olaparib; first compound 0.3162 µM),relative viability (BI-2536 + Olaparib; first compound 1 µM)
ChaGo-K-1,0.923,0.91,0.994,0.92,0.882,0.736,0.642,0.685,0.686,0.367,0.216,0.227,0.219,0.211,0.239,0.414,0.308,0.265,0.164,0.15
NCI-H2228,0.845,1.07,0.794,0.914,0.832,0.359,0.497,0.503,0.402,0.483,0.285,0.195,0.187,0.139,0.11,0.596,0.553,0.141,0.118,0.123
PC-14,0.936,1.1,0.894,0.928,1.01,0.6,0.692,0.619,0.6,0.805,0.577,0.568,0.548,0.045,0.0586,0.258,0.155,0.0592,0.0538,0.0392
NCI-H1437,1.22,1.27,1.15,1.11,1.25,0.479,0.441,0.451,0.427,0.477,0.465,0.432,0.389,0.333,0.237,0.6,0.494,0.339,0.23,0.247
NCI-H460,0.931,1.02,0.996,1.01,1.02,0.238,0.297,0.367,0.34,0.365,0.367,0.477,0.336,0.0323,0.0403,0.488,0.421,0.268,0.0394,0.0262
NCI-H1666,0.909,1.04,0.855,0.918,1.06,0.305,0.55,0.35,0.381,0.469,0.621,0.52,0.415,0.369,0.372,0.76,0.704,0.671,0.545,0.583
NCI-H1651,0.811,0.826,0.825,0.74,0.953,0.432,0.548,0.703,0.557,0.592,0.685,0.795,0.429,0.104,0.0989,0.185,0.173,0.157,0.142,0.109
NCI-H1755,0.968,0.916,0.883,0.893,0.917,0.369,0.462,0.397,0.432,0.422,0.559,0.595,0.477,0.344,0.317,0.945,0.816,0.707,0.373,0.316
NCI-H661,0.997,1.01,1.03,0.909,1.07,0.416,0.422,0.422,,0.508,0.367,0.373,0.384,0.316,0.31,0.763,0.468,0.354,0.335,0.34
HARA,0.913,1.06,0.797,0.819,1.1,0.371,0.368,0.46,0.26,0.377,0.109,0.127,0.114,0.0998,0.128,0.8,0.988,0.507,0.139,0.0972
NCI-H596,0.907,1.01,0.824,0.819,0.842,0.401,0.338,0.396,0.368,0.429,0.913,1.12,0.769,0.267,0.247,0.731,0.731,0.59,0.423,0.295
NCI-H23,0.955,0.88,0.954,0.99,0.973,0.389,0.48,,0.503,0.534,0.331,0.458,0.182,0.142,0.141,0.307,0.318,0.212,0.117,0.104
LCLC-97TM1,0.935,0.973,0.85,0.881,0.948,,0.251,0.168,0.173,0.207,0.236,0.184,0.176,0.182,0.178,0.463,0.292,0.233,0.0868,0.0916
EPLC-272H,0.552,,0.69,0.852,0.729,0.31,0.31,0.32,0.296,0.381,0.187,0.252,0.215,0.148,0.164,0.478,0.111,0.124,0.081,0.0599
NCI-H1915,1.09,1.13,1.1,1.06,1.09,0.988,1.08,0.91,0.846,0.902,0.486,0.292,0.232,0.171,0.166,0.218,0.205,0.163,0.0887,0.0963
